Test results published in patent publication US20120029054A1, “RNA Interference Mediated Inhibition of GATA Binding Protein 3 (GATA3) Gene Expression Using Short Intefering Nucleic Acid (siNA)” (Merck Sharp & Dohme Corp., priority 2009, published 2012).

Test system: GATA3 protein
Assay: GATA3 Western Blot in transfected MCF7 cells (6-well plate)
Assay type: cell-based, human
Details: 30 nM, 48 hours, average band ratio ± S.D.
Procedure: MCF7 cells were plated in 6-well plates at final counts of 70,000 cells/well in 2 ml of complete growth media. Transfection was performed using 2.5 uL of RNAiMax per well. Final concentration of siNAs was 30 nM (screen) and 30, 0.3, and 0.003 nM (dose response study). Protein lysates were harvested 24, 48, and 72 hours post-transfection (screen) and 72 hours post-transfection (dose response study). Protein lysates were prepared using Cell Disruption Buffer from the PARIS kit (Ambion, cat #1921) according to manufacturer's instructions. Protein concentration was measured using a Bradford Quick Start Kit (Bio-Rad, cat#500-0205).
The protein source for the Western Blot experiments were from transfection of MCF7 cells in a 6 well plate, as described above.
Protein samples were diluted 1:1 in 2× Laemmli buffer with 5% β-mercapto-ethanol and incubated at 95° C. for 5 minutes. 20-40 ug of protein was loaded in each lane of 10% Tris-HCl gel. One lane was designated for MagicMark Protein Standard (Invitrogen # LC5602). The gel was run at 100V for approximately 2 hours. Protein was transferred to a PVDF membrane at 100V for 60 minutes. Once the transfer was finished, the membrane was blocked in 1% Casein in PBS (BioRad Cat#161-0783) for 1 hour on a plate rocker at room temperature followed by the overnight incubation at 4° C. with mouse monoclonal anti-GATA3 primary antibody (Santa Cruz Biotechnology, cat# HG3-31) diluted 1:500 in 1% Casein in PBS. On the next day, the blot was washed 4×5 minutes in PBST (0.1% Tween-20 in PBS) solution and incubated for 30 minutes at room temperature with goat anti-mouse secondary antibody (Pierce Biotechnology, cat#3 31430) diluted 1:20,000 in 1% Casein. […]
The protein bands were quantified by computing their density which is defined by the ratio between the total intensity of all pixels and the area of the rectangle drawn around each band (intensity/mm^2). The density was calculated by the BioRad software.
The level of protein was quantified using the Bio-Rad VersaDoc Imager according to the protocols of that piece of equipment. […]

For “30263-DC: GATA3 siNA duplex, site 817: sense B cGccucuGcuucAuGGAuc TTB (SEQ 79), antisense GAUccAuGAAGcAGAGGcGUU (SEQ 80) (sense CGCCUCUGCUUCAUGGAUCTT; antisense GAUCCAUGAAGCAGAGGCGUU; chemistry not fully specified)”, which “Density (GATA3)/Density (α-Tubulin)” value is on record?
Its value is 0.016 ± 0.0003.
